Here are results for four molecules from US11034672B1, “Tyrosine kinase inhibitor compositions, methods of making and methods of use” (Black Diamond Therapeutics, Inc., priority 2018, dated 2021).

Assay type in all cases: cell-based
The target of experiment [1] is T1, HER2 WT (Homo sapiens, UniProt P04626). Kind of experiment: Activity for inhibiting HER2 (Table B), HER2 WT.
Experiment [2] addresses T2, EGFR V3 (Homo sapiens, UniProt P00533, DELINS30-297G).
T2 construct: expressed in transfected cells; host or cells: BaF3 (murine pro-B), retroviral pMXs-IRES-Blasticidin
Kind of experiment: BaF3 cell proliferation assay, EGFR V3 (Table A). To be noted: potency code, 3 days, CellTiterGlo, read-out: EGFR V3 (Activity for Inhibiting EGFR). In outline:
(§1)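 Proliferation read-out is used in BaF3 cells engineered to express each EGFR or HER2 form; EC50 is derived from it. Transduced populations are selected with Blasticidin, washed in PBS and cultured without IL-3.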

The target of experiment [3] is T3, HER2 S310F (Homo sapiens, UniProt P04626, S310F).
T3 construct: expressed in transfected cells; host or cells: BaF3 (murine pro-B)
Kind of experiment: BaF3 cell proliferation assay, HER2 S310F (Table B). As to conditions: potency code, 3 days, CellTiterGlo, read-out: HER2 S310F (Activity for Inhibiting HER2).

The target of experiment [4] is T4, EGFR NPH (Homo sapiens, UniProt P00533, DUP771-773).
T4 construct: expressed in transfected cells; host or cells: BaF3 (murine pro-B), retroviral pMXs-IRES-Blasticidin
Kind of experiment: BaF3 cell proliferation assay, EGFR NPH (Table A). To be noted: potency code, 3 days, CellTiterGlo, read-out: EGFR NPH (Activity for Inhibiting EGFR). As to the method: (§2) Retroviral Production: EGFR mutants were subcloned into pMXs-IRES-Blasticidin (RTV-016, Cell Biolabs, San Diego, Calif.). Retroviral expression vector retrovirus was produced by transient transfection of HEK 293T cells with the retroviral EGFR mutant expression vector pMXs-IRES-Blasticidin (RTV-016, Cell Biolabs), pCMV-Gag-Pol vector and pCMV-VSV-G-Envelope vector. Briefly, HEK 293T/17 cells were plated in 100 mm collagen coated plate (354450, Corning Life Sciences, Tewksbury, Mass.) (4×10^5 per plate) and incubated overnight. The next day, retroviral plasmids (3 μg of EGFR mutant, 1.0 μg of pCMV-Gag-Pol and 0.5 μg pCMV-VSV-G) were mixed in 500 μl of Optimem (31985, Life Technologies). The mixture was incubated at room temperature for 5 min and then added to Optimem containing transfection reagent Lipofectamine (11668, Invitrogen) and incubated for 20 minutes. Mixture was then added dropwise to HEK 293T cells. The next day the medium was replaced with fresh culture medium and retrovirus was harvested @ 24 and 48 hrs.
(§3) Generation of EGFR mutant stable cell lines: BaF3 cells (1.5E5 cells) were infected with 1 ml of viral supernatant supplemented with 8 μg/ml polybrene by centrifuging for 30 min at 1000 rpm. Cells were placed in a 37° C. incubator overnight. Cells were then spun for 5 minutes to pellet the cells. Supernatant was removed and cells re-infected a fresh 1 ml of viral supernatant supplemented with 8 μg/ml polybrene by centrifuging for 30 min at 1000 rpm. Cells were placed in 37° C. incubator overnight. […] After 48 hours cells were selected for retroviral infection in 10 μg/ml Blasticidin for one week. Blasticidin resistant populations were washed twice in phosphate buffered saline before plating in media lacking IL-3 to select for IL-3 independent growth.
(§4) EC50 values were determined with the same application.

The target in experiment [5] is T3, HER2 S310F. Kind of experiment: Activity for inhibiting HER2 (Table B), HER2 S310F. As to conditions: read-out: HER2 S310F, potency code (IC50). As for the experimental part:
as §4

Experiment [6] deals with T5, EGFR SVD (Homo sapiens, UniProt P00533, DUP768-770).
T5 construct: expressed in transfected cells; host or cells: BaF3 (murine pro-B), retroviral pMXs-IRES-Blasticidin
Kind of experiment: Activity for inhibiting EGFR (Table A), EGFR SVD. As to conditions: read-out: EGFR SVD, potency code (IC50).

Experiment [7] addresses T2, EGFR V3. Kind of experiment: Activity for inhibiting EGFR (Table A), EGFR V3 (EGFR-Viii). To be noted: read-out: EGFR V3, potency code (IC50).
For experiment [8], the target named is T4, EGFR NPH. Kind of experiment: Activity for inhibiting EGFR (Table A), EGFR NPH. As to conditions: read-out: EGFR NPH, potency code (IC50).
Experiment [9] concerns the target T6, EGFR WT (Homo sapiens, UniProt P00533). In words: BaF3 cell proliferation assay, EGFR WT (Table A). As to conditions: potency code, 3 days, CellTiterGlo, read-out: EGFR WT (Activity for Inhibiting EGFR). In outline:
as §1

Experiment [10] has as its target T1, HER2 WT. In words: BaF3 cell proliferation assay, HER2 WT (Table B). As to conditions: potency code, 3 days, CellTiterGlo, read-out: HER2 WT (Activity for Inhibiting HER2).
Experiment [11] deals with T5, EGFR SVD. In words: BaF3 cell proliferation assay, EGFR SVD (Table A). To be noted: potency code, 3 days, CellTiterGlo, read-out: EGFR SVD (Activity for Inhibiting EGFR). As for the experimental part: as §2, §3, §4
For experiment [12], the target named is T6, EGFR WT. In words: Activity for inhibiting EGFR (Table A), EGFR WT. As to conditions: read-out: EGFR WT, potency code (IC50).
Experiment [13] has as its target T7, HER2 YVMA (Homo sapiens, UniProt P04626, INS775YVMA).
T7 construct: expressed in transfected cells; host or cells: BaF3 (murine pro-B)
In words: Activity for inhibiting HER2 (Table B), HER2 YVMA. To be noted: read-out: HER2 YVMA, potency code (IC50). As to the method:
as §4

For experiment [14], the target named is T7, HER2 YVMA. In words: BaF3 cell proliferation assay, HER2 YVMA (Table B). To be noted: potency code, 3 days, CellTiterGlo, read-out: HER2 YVMA (Activity for Inhibiting HER2).
[15] abbreviates: Table B, read-out: HER2 WT, potency code (IC50).
Setting [16] is: text lists of compounds, read-out: IC50 value for inhibiting wild-type HER2.

T7 sequence (P04626 with tags, fused parts or gaps INS775YVMA): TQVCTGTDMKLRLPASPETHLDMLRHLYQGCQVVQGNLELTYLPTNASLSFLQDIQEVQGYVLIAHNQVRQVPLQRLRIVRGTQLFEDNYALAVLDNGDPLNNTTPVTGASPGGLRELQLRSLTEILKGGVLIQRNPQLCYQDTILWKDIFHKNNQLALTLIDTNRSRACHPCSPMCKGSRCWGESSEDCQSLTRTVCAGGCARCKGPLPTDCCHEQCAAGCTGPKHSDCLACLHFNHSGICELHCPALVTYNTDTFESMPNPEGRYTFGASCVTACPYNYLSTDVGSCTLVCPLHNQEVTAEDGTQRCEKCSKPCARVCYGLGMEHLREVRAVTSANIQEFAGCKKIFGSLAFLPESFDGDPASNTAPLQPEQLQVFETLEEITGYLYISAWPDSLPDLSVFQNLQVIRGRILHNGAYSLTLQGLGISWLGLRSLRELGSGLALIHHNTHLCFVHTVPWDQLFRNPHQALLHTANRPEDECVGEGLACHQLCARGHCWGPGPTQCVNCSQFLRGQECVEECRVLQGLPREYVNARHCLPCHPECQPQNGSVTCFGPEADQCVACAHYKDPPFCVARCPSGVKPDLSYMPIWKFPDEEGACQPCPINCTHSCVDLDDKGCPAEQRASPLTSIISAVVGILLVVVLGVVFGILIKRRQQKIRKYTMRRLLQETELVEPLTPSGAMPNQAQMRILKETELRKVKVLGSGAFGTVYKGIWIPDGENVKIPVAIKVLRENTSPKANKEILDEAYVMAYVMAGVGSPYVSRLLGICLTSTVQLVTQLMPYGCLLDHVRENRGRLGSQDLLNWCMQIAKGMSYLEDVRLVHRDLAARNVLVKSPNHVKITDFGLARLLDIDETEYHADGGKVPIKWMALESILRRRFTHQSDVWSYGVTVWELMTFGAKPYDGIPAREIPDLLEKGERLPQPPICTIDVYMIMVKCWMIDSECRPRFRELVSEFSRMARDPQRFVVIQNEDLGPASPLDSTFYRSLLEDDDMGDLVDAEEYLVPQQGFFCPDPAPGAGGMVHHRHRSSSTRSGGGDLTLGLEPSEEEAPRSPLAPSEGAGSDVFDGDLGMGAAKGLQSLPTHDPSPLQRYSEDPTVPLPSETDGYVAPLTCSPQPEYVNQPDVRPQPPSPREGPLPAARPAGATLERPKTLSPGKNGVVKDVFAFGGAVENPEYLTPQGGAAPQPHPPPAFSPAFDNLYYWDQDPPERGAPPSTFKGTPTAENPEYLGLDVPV
T1 sequence (P04626 23-1255): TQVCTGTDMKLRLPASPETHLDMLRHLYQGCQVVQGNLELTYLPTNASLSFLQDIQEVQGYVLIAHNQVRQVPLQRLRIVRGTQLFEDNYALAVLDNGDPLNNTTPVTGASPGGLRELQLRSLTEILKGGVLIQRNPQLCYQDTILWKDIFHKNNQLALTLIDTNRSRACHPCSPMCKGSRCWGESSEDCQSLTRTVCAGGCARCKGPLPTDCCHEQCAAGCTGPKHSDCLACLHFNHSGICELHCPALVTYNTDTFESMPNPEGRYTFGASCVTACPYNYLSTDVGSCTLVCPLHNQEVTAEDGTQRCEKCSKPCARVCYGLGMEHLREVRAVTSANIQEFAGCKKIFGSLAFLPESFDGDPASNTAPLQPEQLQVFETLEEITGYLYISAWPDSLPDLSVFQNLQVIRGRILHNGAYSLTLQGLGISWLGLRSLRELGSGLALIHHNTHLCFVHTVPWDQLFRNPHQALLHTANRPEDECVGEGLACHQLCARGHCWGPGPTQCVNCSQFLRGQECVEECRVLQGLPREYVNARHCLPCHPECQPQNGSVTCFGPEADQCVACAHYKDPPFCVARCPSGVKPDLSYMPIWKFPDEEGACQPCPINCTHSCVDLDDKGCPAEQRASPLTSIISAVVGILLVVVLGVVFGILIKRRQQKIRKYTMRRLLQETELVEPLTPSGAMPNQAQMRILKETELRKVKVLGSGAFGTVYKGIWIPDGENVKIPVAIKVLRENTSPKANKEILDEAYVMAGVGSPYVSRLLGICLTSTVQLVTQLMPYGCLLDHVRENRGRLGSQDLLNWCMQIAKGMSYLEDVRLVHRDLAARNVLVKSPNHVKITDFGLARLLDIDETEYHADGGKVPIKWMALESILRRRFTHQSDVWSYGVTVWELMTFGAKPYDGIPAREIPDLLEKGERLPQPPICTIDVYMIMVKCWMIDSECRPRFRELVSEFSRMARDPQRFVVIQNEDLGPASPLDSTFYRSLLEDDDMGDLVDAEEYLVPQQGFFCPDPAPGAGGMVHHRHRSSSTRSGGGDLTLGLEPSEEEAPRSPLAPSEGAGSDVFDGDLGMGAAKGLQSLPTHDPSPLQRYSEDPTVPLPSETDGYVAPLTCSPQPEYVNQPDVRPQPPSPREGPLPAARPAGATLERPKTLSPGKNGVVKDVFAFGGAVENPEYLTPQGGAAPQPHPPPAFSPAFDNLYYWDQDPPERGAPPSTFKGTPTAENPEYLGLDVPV
T4 sequence (P00533 with tags, fused parts or gaps DUP771-773): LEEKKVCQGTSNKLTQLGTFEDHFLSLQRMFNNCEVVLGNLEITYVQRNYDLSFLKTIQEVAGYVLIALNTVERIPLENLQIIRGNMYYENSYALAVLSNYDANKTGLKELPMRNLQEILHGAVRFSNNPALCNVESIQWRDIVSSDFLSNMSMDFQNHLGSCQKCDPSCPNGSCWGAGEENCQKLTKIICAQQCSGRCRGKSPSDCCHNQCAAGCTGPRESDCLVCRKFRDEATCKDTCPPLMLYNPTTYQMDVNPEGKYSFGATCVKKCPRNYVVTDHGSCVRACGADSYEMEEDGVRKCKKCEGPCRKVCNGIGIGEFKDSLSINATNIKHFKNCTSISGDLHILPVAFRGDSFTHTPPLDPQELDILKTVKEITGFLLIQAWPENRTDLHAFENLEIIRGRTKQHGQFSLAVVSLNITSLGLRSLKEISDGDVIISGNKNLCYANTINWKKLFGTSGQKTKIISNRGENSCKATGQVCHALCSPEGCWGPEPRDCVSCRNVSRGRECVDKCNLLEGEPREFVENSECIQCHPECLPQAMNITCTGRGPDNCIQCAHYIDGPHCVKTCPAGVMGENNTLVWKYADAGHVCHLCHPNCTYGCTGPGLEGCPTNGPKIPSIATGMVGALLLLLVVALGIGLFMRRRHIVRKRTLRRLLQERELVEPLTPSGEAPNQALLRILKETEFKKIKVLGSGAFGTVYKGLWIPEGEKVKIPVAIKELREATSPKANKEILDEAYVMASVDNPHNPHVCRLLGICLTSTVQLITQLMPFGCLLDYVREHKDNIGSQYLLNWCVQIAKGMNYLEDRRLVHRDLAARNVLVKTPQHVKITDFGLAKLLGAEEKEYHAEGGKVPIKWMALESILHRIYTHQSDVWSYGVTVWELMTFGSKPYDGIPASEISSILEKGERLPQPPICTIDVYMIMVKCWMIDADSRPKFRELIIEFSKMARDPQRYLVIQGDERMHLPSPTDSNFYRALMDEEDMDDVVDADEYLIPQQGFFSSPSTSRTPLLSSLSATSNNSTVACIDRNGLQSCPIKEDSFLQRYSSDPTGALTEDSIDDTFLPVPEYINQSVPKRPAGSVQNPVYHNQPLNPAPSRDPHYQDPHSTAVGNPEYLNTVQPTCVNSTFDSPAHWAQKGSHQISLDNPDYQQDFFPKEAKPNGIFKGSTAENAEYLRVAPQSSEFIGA
T3 sequence (P04626 23-1255 S310F): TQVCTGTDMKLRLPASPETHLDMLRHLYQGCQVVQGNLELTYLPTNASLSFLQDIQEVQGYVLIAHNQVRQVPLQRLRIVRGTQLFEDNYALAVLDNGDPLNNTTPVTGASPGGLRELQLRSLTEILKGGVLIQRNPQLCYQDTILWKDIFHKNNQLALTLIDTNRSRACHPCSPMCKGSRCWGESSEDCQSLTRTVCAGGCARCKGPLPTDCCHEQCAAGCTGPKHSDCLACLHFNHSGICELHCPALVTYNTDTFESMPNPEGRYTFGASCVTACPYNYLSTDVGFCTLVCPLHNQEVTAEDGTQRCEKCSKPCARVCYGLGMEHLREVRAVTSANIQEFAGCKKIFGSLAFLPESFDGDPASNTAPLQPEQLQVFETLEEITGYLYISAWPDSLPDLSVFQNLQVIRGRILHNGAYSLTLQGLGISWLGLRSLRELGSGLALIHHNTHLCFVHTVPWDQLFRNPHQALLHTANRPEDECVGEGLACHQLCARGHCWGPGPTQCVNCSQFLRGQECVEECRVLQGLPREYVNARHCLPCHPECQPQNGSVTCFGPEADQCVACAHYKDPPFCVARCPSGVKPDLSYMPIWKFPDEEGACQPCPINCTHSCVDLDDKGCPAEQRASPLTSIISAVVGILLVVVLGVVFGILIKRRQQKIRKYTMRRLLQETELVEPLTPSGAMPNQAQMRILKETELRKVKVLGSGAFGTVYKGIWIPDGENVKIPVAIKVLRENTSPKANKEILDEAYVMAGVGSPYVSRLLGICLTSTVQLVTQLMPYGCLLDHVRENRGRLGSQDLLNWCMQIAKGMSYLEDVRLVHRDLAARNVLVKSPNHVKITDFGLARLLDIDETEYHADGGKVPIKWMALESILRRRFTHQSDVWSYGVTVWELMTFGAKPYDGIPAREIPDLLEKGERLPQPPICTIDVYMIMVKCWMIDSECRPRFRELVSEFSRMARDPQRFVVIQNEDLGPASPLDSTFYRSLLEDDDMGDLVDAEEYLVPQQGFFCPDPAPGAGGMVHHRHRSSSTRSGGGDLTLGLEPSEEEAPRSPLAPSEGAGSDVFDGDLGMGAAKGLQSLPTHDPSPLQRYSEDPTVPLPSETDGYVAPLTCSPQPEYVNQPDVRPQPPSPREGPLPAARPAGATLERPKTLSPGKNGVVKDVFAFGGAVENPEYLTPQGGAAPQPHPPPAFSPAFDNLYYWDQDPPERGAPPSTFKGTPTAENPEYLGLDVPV

As for `C=CC(=O)Nc1cc2c(Nc3ccc(OCc4ccccn4)c(Cl)c3)c(C#N)cnc2cc1OCCN1CCOCC1` [compound 11], the IC50 on HER2 WT [1] (setting [15]) was 30 to 50 nM; at HER2 WT [1] (setting [16]) it was no more than 50 nM; at EGFR V3 [2], 50 to 100 nM; on HER2 S310F [3], 50 to 100 nM; on EGFR NPH [4], 300 to 500 nM; on HER2 S310F [5], 50 to 100 nM. Moreover, the IC50 at EGFR SVD [6] was in the range of 300 to 500 nM; at EGFR V3 [7], 50 to 100 nM; on EGFR NPH [8], 300 to 500 nM; at EGFR WT [9], 300 to 500 nM; at HER2 WT [10], 30 to 50 nM; on EGFR SVD [11] it was 300 to 500 nM. Besides, the IC50 at EGFR WT [12] lay within 300 to 500 nM.
On to `C=CC(=O)Nc1cc2c(Nc3ccc(OCc4ccccn4)c(Cl)c3)ncnc2cc1OCC1CCCN1` (stereo not shown) [compound 13], for which the IC50 at HER2 WT [1] (setting [15]) was 5 to 10 nM; at HER2 WT [1] (setting [16]), no more than 20 nM; on EGFR V3 [2], 50 to 100 nM; at HER2 S310F [3] it was 30 to 50 nM; at EGFR NPH [4], 300 to 500 nM; at HER2 S310F [5], 30 to 50 nM. The IC50 at HER2 YVMA [13] lay in the range of 300 to 500 nM; on EGFR SVD [6], 200 to 300 nM; at EGFR V3 [7], 50 to 100 nM; at EGFR NPH [8], 300 to 500 nM; at HER2 YVMA [14], 300 to 500 nM; on EGFR WT [9] it was 300 to 500 nM. The IC50 was 5 to 10 nM at HER2 WT [10], 200 to 300 nM at EGFR SVD [11] and 300 to 500 nM on EGFR WT [12].
`C=CC(=O)Nc1cc2c(Nc3ccc(OCc4ccccn4)c(Cl)c3)ncnc2cc1O[C@@H]1CCN(C)C1` [compound 17]: the IC50 is less than 5 nM at HER2 WT [1] (setting [15]); no more than 5 nM at HER2 WT [1] (setting [16]); 10 to 20 nM at EGFR V3 [2]; 5 to 10 nM on HER2 S310F [3]; 20 to 30 nM on EGFR NPH [4]; 5 to 10 nM on HER2 S310F [5]. Also, the IC50 on HER2 YVMA [13] lay within 30 to 50 nM; on EGFR SVD [6], 10 to 20 nM; at EGFR V3 [7], 10 to 20 nM; on EGFR NPH [8] it was 20 to 30 nM; on HER2 YVMA [14] it was 30 to 50 nM; at EGFR WT [9], 200 to 300 nM. For the same molecule, the IC50 on HER2 WT [10] is less than 5 nM; at EGFR SVD [11] it was 10 to 20 nM; on EGFR WT [12], 200 to 300 nM.
For `C=CC(=O)Nc1cc2c(Nc3ccc(OCc4ccccn4)c(Cl)c3)ncnc2cc1OCCN(C)C` [compound 19], the IC50 was 5 to 10 nM on HER2 WT [1] (setting [15]); no more than 10 nM on HER2 WT [1] (setting [16]); 20 to 30 nM at EGFR V3 [2]; 20 to 30 nM on HER2 S310F [3]; 100 to 200 nM at EGFR NPH [4]; 20 to 30 nM at HER2 S310F [5]. In addition, the IC50 at HER2 YVMA [13] was 100 to 200 nM; on EGFR SVD [6], 100 to 200 nM; at EGFR V3 [7] it was 20 to 30 nM; at EGFR NPH [8] it was 100 to 200 nM; at HER2 YVMA [14], 100 to 200 nM; at EGFR WT [9] it was 200 to 300 nM. In addition, the IC50 was in the range of 5 to 10 nM on HER2 WT [10], 100 to 200 nM at EGFR SVD [11] and 200 to 300 nM at EGFR WT [12].
